# In patent US20040110681A1, “Method to identify targeting molecules” (priority 2002, published 2004):
# Several values for one entry are separate records, joined by “and”; a condition that tells them apart may be missing. Identical values can stand only once. Positions of bridges follow the written chain, without caps; N, C: chain ends. Residues, ends and D or L forms follow the SMILES beside them.
# Key:
# [1] = test system: brain; test: kSAR: co-injection of all 20 CAGAXCY (position 5) phage variants, sequence frequency in brain; format: in vivo, BALB/c mice
# Protocol: To determine the optimum amino acid for position 5, all 20 variants at this position were injected. For co-injection of all 20 variants of CAGAXCY phage, individual phage were grown up and titered. Equivalent amounts of each phage type were added to PBS and 200 μL dose of the mixture was injected into 3 BALB/c mice per group (two time points of 30 minutes and 4 hours were studied, total of 6 mice). At 30 min and 4 hrs post injection, the mice were anesthetized, perfused and blood and brain were harvested. Aliquots of both the initial phage pool used for dosing as well as brain tissue samples were plated out, and approximately 100 individual plaques from each set were amplified by PCR using the T7 Super up primer method and sequenced using a CEQ 2000XL sequencer (Beckman Coulter, Calif.).
# A total of 107 individual phage from the initial mixture used for dosing were sequenced to verify the relative abundance of the individual phage within the administered dose and these were compared with the relative frequency of the different phage recovered from brain after 30 minutes or 4 hours of circulation. There was a marked and rapid shift in frequency even by 30 minutes, where there was a marked enrichment of phage expressing N at the X5 position, (from 7% in the initial pool to 49%), M (from 5% to 24%) or L (2.8% to 12%) at 30 minutes.
# [2] = test system: brain; test: Head to head comparison of CAGAXCY variants (L5, N5, M5) vs control lacZ phage; format: in vivo; conditions: 6 hours after administration vs 2 hours
# [3] = test system: brain; test: CX4CY phage library, one round of in vivo panning to brain; set-up: species or system BALB/c mice; conditions: 4 hrs post phage injection
# Protocol: A CX4CY library was prepared and tested. 1×10^10 pfu of the library phage were injected into 6 BALB/c mice (3 mice/time point). At 30 min and 4 hr post-injection, brain was harvested and processed as described above. Similar numbers of plaques were picked individually, and the insert sequence amplified by PCR and sequenced. Alignment analysis of the sequence data was performed with a version of Clustral/W.
# [4] = test system: brain tissue; test: Individual peptide variants of A3 on phage, brain selectivity index vs T7-lacZ; format: in vivo, FVB or BALB/c mice; conditions: 2 hours circulation; for Brain Targeting Activity: 0.5-1×10^10 pfu co-injected with T7-lacZ; for Selectivity index (BALB/C mice) / Selectivity index (FVB female): brain tissue; for Selectivity index (FVB female): FVB female mice
# Protocol: In this example, various individual peptide variants of A3 were tested in vivo for their ability to target brain or other tissues. […] The phage contents of each organ were determined by plaque assay in the presence of X-gal (500 μg/mL) in top agar.
# Thus, selectively indices of less than 10 are considered low, those between 10 and […] are considered moderate and those over 100 are considered high.
# [5] = test system: brain, lung, liver, kidney, colon; test: Effect of dose on the brain-targeting properties of T7-CAGALCY (SI, SPI); format: in vivo, FVB female mice; conditions: for Organ Specificity Index (SPI), ratio of SI brain to colon / Organ Specificity Index (SPI), ratio of SI brain to kidney / Organ Specificity Index (SPI), ratio of SI brain to liver / Organ Specificity Index (SPI), ratio of SI brain to lung / Selectivity index (SI), brain / Selectivity index (SI), colon / Selectivity index (SI), kidney / Selectivity index (SI), liver / Selectivity index (SI), lung: 4 hours; for Organ Specificity Index (SPI), ratio of SI brain to colon / Organ Specificity Index (SPI), ratio of SI brain to kidney / Organ Specificity Index (SPI), ratio of SI brain to liver / Organ Specificity Index (SPI), ratio of SI brain to lung: mean; for Selectivity index (SI), brain / Selectivity index (SI), colon / Selectivity index (SI), kidney / Selectivity index (SI), liver / Selectivity index (SI), lung: mean ± SEM
# Protocol: In the dose response study, in paragraph B below, three mice were used per dose, co-injected with 1×10^7, 1×10^8, 1×10^9, 1×10^10, 1×10^11 pfu of each phage.
# For each dose, three mice were injected. Four hours after phage administration, phage were recovered from the brain, lung, liver, kidney, colon, and blood.
# This was measured as A3-T7 phage yield per gram tissue from various organs normalized by the yield/g tissue of the control phage.
# [6] = test system: brain; test: Co-injection of A3 and control T7-LacZ phage, plaque assay of tissues and blood; format: in vivo, BALB/c mice; conditions: 10^9 pfu of each phage, tail vein, 1 hour circulation
# Protocol: Plaque assays were used to determine the relative amounts of phage contained in blood and brain. For the blood assays, 300 μl of blood was drawn into 300 μl of 100 mM sodium citrate before perfusion. Plasma was recovered and saved for plaque assay. The phage content was assessed by mixing aliquots of the tissue homogenate or plasma with the bacterial BLT-5615 host, then plating on agar plates.
# 40 μl of 40 mg/ml of X-gal in DMF was added into 3 ml of top agar in each plate.
# A mixture of the two phage (10^9 pfu of each phage) was injected into the tail veins of non-anesthetized BALB/c mice. […] Another measure of selective retention is to compare target organ to blood levels of the test phage.
# [7] = test system: brain, lung, liver, kidney, blood and spleen; test: Pharmacokinetic (PK) analysis of T7-CAGALCY and T7-lacZ phage, plaque assay; format: in vivo, FVB female mice
# Protocol: A3-T7 was amplified in the host strain BLT-5615 in the presence of 1 mM IPTG and purified. T7-lacZ phage were amplified by large scale plating on LB plates. The plates were incubated at 25° C. overnight, and phage were eluted with phage extraction buffer (20 mM Tris-HCl, pH 8.0, 100 mM NaCl, 6 mM MgSO4) overnight at 4° C. with gentle rocking. The extracted phage were pooled and purified. In the PK study, in paragraph A below, three mice were used per time point, co-injected with 1×10^10 pfu of each phage. Time points were 2 min, 10 min, 30 min, 1 hr, 2 hr, 4 hr, 6 hr, 12 hr, and 24 hr.
# Mice were anesthetized with Avertin 2-4 minutes before the scheduled harvest time (the mice assigned to the 2 minute time-point were anesthetized prior to administration of the phage). The brain, lung, liver, kidney, blood and spleen were harvested at 2 min, 10 min, 30 min, 1 hr, 2 hr, 4 hr, 6 hr, 12 hr, and 24 hr. The phage contents in each organ were determined by plaque assay in the presence of X-gal in top agar.
# [8] = Pharmacokinetic analysis, plasma half-life of fusion protein and free peptide; format: in vivo; conditions: read-out: plasma t½
# [9] = 30 minutes after injection of 20-variant mixture
# [10] = 4 hours after injection of 20-variant mixture
compound,measurement,setting,value
CAGANCY,frequency of phage variant recovered from brain,[1]; [9],49%
same,frequency of phage variant recovered from brain,[1]; [10],55%
same,change of brain SI values,[2],slight decrease
same,enrichment among 83 sequences sampled from the brain,[3],no enriched phage
CGADALCY,Brain Targeting Activity,[4],No
same,Selectivity index (BALB/C mice),[4],1
CAGALCAY,Brain Targeting Activity,[4],brain targeting activity is lost and No
same,Selectivity index (FVB female),[4],1.4
CAGGLCY,Brain Targeting Activity,[4],No
same,Brain Targeting Activity,[4]; listed as A4G,loss of brain targeting activity
same,Selectivity index (FVB female),[4],0.9
CRDVNECD [reference compound],Brain Targeting Activity,[4],No
same,Selectivity index (BALB/C mice),[4],1
same,Selectivity index (FVB female),[4],0.3
CAGAGCY,Brain Targeting Activity,[4],No
same,Brain Targeting Activity,[4]; listed as L5G,loss of brain targeting activity
same,Selectivity index (FVB female),[4],1.1
CAGALCY [T7-A3],"Organ Specificity Index (SPI), ratio of SI brain to colon",[5]; 1 × 10^7 pfu,4.57
same,"Organ Specificity Index (SPI), ratio of SI brain to kidney",[5]; 1 × 10^7 pfu,1.92
same,"Organ Specificity Index (SPI), ratio of SI brain to liver",[5]; 1 × 10^7 pfu,2.34
same,"Organ Specificity Index (SPI), ratio of SI brain to lung",[5]; 1 × 10^7 pfu,4.23
same,"Selectivity index (SI), brain",[5]; 1 × 10^7 pfu,13.2
same,"Selectivity index (SI), colon",[5]; 1 × 10^7 pfu,1.8 ± 1.1
same,"Selectivity index (SI), kidney",[5]; 1 × 10^7 pfu,5.0 ± 3.1
same,"Selectivity index (SI), liver",[5]; 1 × 10^7 pfu,6.3 ± 5.4
same,"Selectivity index (SI), lung",[5]; 1 × 10^7 pfu,1.9 ± 0.8
same,"Organ Specificity Index (SPI), ratio of SI brain to colon",[5]; 1 × 10^8 pfu,2.82
same,"Organ Specificity Index (SPI), ratio of SI brain to kidney",[5]; 1 × 10^8 pfu,2.08
same,"Organ Specificity Index (SPI), ratio of SI brain to liver",[5]; 1 × 10^8 pfu,3.27
same,"Organ Specificity Index (SPI), ratio of SI brain to lung",[5]; 1 × 10^8 pfu,0.65
same,"Selectivity index (SI), brain",[5]; 1 × 10^8 pfu,10.5 and 10
same,"Selectivity index (SI), colon",[5]; 1 × 10^8 pfu,4.3 ± 1.8
same,"Selectivity index (SI), kidney",[5]; 1 × 10^8 pfu,5.4 ± 1.3
same,"Selectivity index (SI), liver",[5]; 1 × 10^8 pfu,4.2 ± 1.9
same,"Selectivity index (SI), lung",[5]; 1 × 10^8 pfu,14.3 ± 6.8
same,"Organ Specificity Index (SPI), ratio of SI brain to colon",[5]; 1 × 10^9 pfu,8.87
same,"Organ Specificity Index (SPI), ratio of SI brain to kidney",[5]; 1 × 10^9 pfu,3.27
same,"Organ Specificity Index (SPI), ratio of SI brain to liver",[5]; 1 × 10^9 pfu,26
same,"Organ Specificity Index (SPI), ratio of SI brain to lung",[5]; 1 × 10^9 pfu,3.23
same,"Selectivity index (SI), brain",[5]; 1 × 10^9 pfu,121
same,"Selectivity index (SI), colon",[5]; 1 × 10^9 pfu,18.3 ± 6.8
same,"Selectivity index (SI), kidney",[5]; 1 × 10^9 pfu,47.3 ± 18.5
same,"Selectivity index (SI), liver",[5]; 1 × 10^9 pfu,8.2 ± 3.1
same,"Selectivity index (SI), lung",[5]; 1 × 10^9 pfu,47.3 ± 12.5
same,"Organ Specificity Index (SPI), ratio of SI brain to lung",[5]; 1 × 10^10 pfu,4.03
same,"Selectivity index (SI), brain",[5]; 1 × 10^10 pfu,150
same,"Selectivity index (SI), colon",[5]; 1 × 10^10 pfu,7.9 ± 1.2
same,"Selectivity index (SI), kidney",[5]; 1 × 10^10 pfu,20.7 ± 6.4
same,"Selectivity index (SI), liver",[5]; 1 × 10^10 pfu,8.9 ± 5.1
same,"Selectivity index (SI), lung",[5]; 1 × 10^10 pfu,40.7 ± 9.2
same,"Organ Specificity Index (SPI), ratio of SI brain to lung",[5]; 1 × 10^11 pfu,3.3
same,"Selectivity index (SI), brain",[5]; 1 × 10^11 pfu,118 ± 47.3
same,"Selectivity index (SI), colon",[5]; 1 × 10^11 pfu,5.3 ± 1.6
same,"Selectivity index (SI), kidney",[5]; 1 × 10^11 pfu,10.3 ± 1.7
same,"Selectivity index (SI), liver",[5]; 1 × 10^11 pfu,4.2 ± 0.4
same,"Selectivity index (SI), lung",[5]; 1 × 10^11 pfu,35.3 ± 11.0
same,"SPI values for lung, liver, kidney or colon compared to the other organs",[5]; all doses tested,lower than 10
same,Brain Targeting Activity,[4],Yes
same,Selectivity index (BALB/C mice),[4],1000
same,Selectivity index (FVB female),[4],>200
same,frequency of phage variant recovered from brain,[1]; [9],12%
same,frequency of phage variant recovered from brain,[1]; [10],7.5%
same,brain to blood ratio after normalization to control phage,[6],> 100 fold
same,change of brain SI values,[2],increase further
same,ratio of yield/g brain and yield/mL blood between T7-A3 and T7-lacZ phage,[7]; 2 hr,250
same,"Selectivity index (SI), brain","[7]; 2 hr, 1×10^10 pfu",51
same,"Selectivity index (SI), lung","[7]; 2 hr, 1×10^10 pfu",16.0
same,"selectivity index (SI), spleen","[7]; 2 hr, 1×10^10 pfu",1.98
same,relative specificity for brain (SI brain compared to lung),[7]; 4 hour time point,6 fold
same,ratio of yield/g brain and yield/mL blood between T7-A3 and T7-lacZ phage,[7]; 4 hr,1200
same,"Selectivity index (SI), brain","[7]; 4 hr, 1×10^10 pfu",280 and 288
same,"Selectivity index (SI), liver","[7]; 4 hr, 1×10^10 pfu",4.62
same,"Selectivity index (SI), lung","[7]; 4 hr, 1×10^10 pfu",54.8 and 47
same,"selectivity index, brain",[7]; difference of half-lives in blood taken into account,over 100
same,enrichment among 83 sequences sampled from the brain,[3],no enriched phage
CDITEYC [reference compound],Brain Targeting Activity,[4],No
same,Selectivity index (BALB/C mice),[4],1
same,Selectivity index (FVB female),[4],0.4
CAGAMCY,frequency of phage variant recovered from brain,[1]; [9],24%
same,frequency of phage variant recovered from brain,[1]; [10],37%
same,change of brain SI values,[2],increase further
same,enrichment among 83 sequences sampled from the brain,[3],no enriched phage
"CC(C)C[C@@H]1NC(=O)[C@H](C)NC(=O)CNC(=O)[C@H](C)NC(=O)[C@@H](N)CSSC[C@@H](C(=O)N[C@@H](Cc2ccc(O)cc2)C(=O)O)NC1=O [free synthetic peptide, CAGALCY] (H-CAGALCY-OH; disulfide 1-6)",half-life,[8],1 to 2 min
YCDAPC [reference compound],Brain Targeting Activity,[4],No
same,Selectivity index (FVB female),[4],0.7
CALCY,Brain Targeting Activity,[4],No
same,Selectivity index (FVB female),[4],0.8
